In patent US6943186B2, “Methods of treating sepsis” (Yung Shin Pharmaceutical Ind. Co., Ltd., priority 2002, dated 2005):
Values joined by “and” are separate entries in the source; they are usually repeats but may differ in a detail not shown here. Equal entries are not always repeated. “Also recorded” adds a separate entry of the source.

Experiments:
[1] = system: rat aortic smooth muscle cells; test: Cytotoxicity (MTT) assay and TUNEL labeling, SNP-induced apoptosis in RASMCs; type: cell-based; conditions: for effect on Compound 3-mediated anti-apoptotic action: inhibitor added to Compound 3 + SNP; for effect on Compound 3-mediated anti-apoptotic action / effect on SNP-induced apoptosis / effect on Compound 3-induced cell proliferation / Cell survival (%): RASMCs; for effect on SNP-induced apoptosis: SNP 1 mmol/L, Compound 3 30 μmol/L
Procedure: (§1) Cell Culture Rat aortic smooth muscle cells (RASMCs) were prepared from Sprague-Dawley rats and cultured in Dulbecco's modified Eagle's medium (DMEM) supplemented with 10% FBS, 100 units/mL penicillin and 100 μg/mL streptomycin (Gibco, Grand Island, N.Y.) as previously described (Yang et al. (2001) Br J Pharmacol. 132: 1531-1541). Cells within six generations were used in the present study. Cells were identified being the smooth muscle cells by immunostaining with monoclonal antibody specific for smooth muscle α-actin.
Cytotoxicity Assay The cytotoxicity assay was carried out using the MTT assay method. MTT (3-(4,5-dimethylthiazol-2-yl)-2,5-diphenyltetrazolium bromide, Sigma Chemical, St. Louis, Mo.) was dissolved in phosphate-buffered saline (PBS) at a concentration of 5 mg/mL and filtered (Millipore, Bedford, Mass.). From this stock solution, 10 μL/100 μL of medium was added to each well of a plate, and the plate was gently shaken and incubated at 37° C. for 2 hours. […] After the loading of MTT, the medium was replaced with 100 μL dimethylsulphoxide (DMSO). The extent of reduction of MTT to formazan within cells was quantified by the measurement of OD550 with an enzyme-linked immunosorbent assay (ELISA) reader.
In Situ Labeling of Apoptotic Cells In situ detection of apoptotic cells was carried out by using a terminal deoxynucleotidyl transferase (TdT) dUTP nick-end labeling (TUNEL) method with an apoptotic detection kit (Promega, Madison, Wis., USA) as described previously (Guh et al. (1998) Mol Pharmacol. 53: 467-474). The TUNEL method identifies apoptotic cells in situ by using TdT to transfer biotin-dUTP to the free 3′-OH of cleaved DNA. The biotin-labeled cleavage sites then were visualized by reaction with fluorescein conjugated avidin (avidin-fluorescein isothiocyanate). Photomicrographs were obtained with a fluorescence microscope (Nikon).

[2] = system: intracellular cGMP levels; test: Assay of cGMP contents; type: cell-based, rat
Procedure: as §1
Assay of cGMP Contents At confluence, monolayer cells were incubated with indicated agents for 10 minutes. Then cells were washed twice with ice-cold PBS and lysed with 0.5 mL NaOH (0.1 mol/L). 0.5 mL HCl (0.1 mol/L) was then added to neutralize the assay solution. After the centrifugation (3,000×g for 3 minutes), the supernatant was used for the detection of cGMP content by using a cGMP ELISA kit.

caspase-3 = test: Determination of caspase-3 activity in RASMCs; type: cell-based, rat
Procedure: Determination of Caspase-3 Activity
The Caspase-3 activity was assayed with the Caspase-3 colorimetric assay kit (R&D Systems, Inc., Minneapolis, Minn.). After the treatment of cells with indicated agents for ten hours, cells were washed twice with ice-cold PBS, trypsinized, and centrifuged (800×g for 5 minutes), and the cell pellet was re-suspended in pre-cooled lysis buffer obtained from the Caspase-3 colorimetric assay kit. After 10 minutes of incubation on ice, cell homogenates were centrifuged at 10,000×g for 1 minute and supernatants were removed for the determination of caspase-3 activity. Proteolytic reactions were performed in a total volume of 100 μL reaction buffer containing 50 μL of cytosolic extracts and 5 μL DEVD-pNA obtained from the kit. The reaction mixture was incubated at 37° C. for one to two hours and the formation of p-nitroaniline was then measured at 405 nm by an ELISA reader.

phosphorylated Akt = test: Western blot of phosphorylated Akt; type: cell-based, rat
Procedure: (§2) Western Blot Analysis After the exposure of cells to the indicated agents for four (for Bcl-2) or six (for cytochrome c) hours, cells were washed twice with ice-cold PBS and reaction was terminated by the addition of 100 μL ice-cold lysis buffer (10 mmol/L Tris-HCl, pH 7.4, 150 mmol/L NaCl, 1 mmol/L EGTA, 0.5 mmol/L phenylmethylsulfonyl fluoride (PMSF), 10 μg/mL aprotinin, 10 μg/mL leupeptin, and 1% Triton X-100). For the detection of phosphorylated Akt, 1 mmol/L Na3VO4, 1 mmol/L NaF, 50 mmol/L tetrasodium pyrophosphate, 10 nmol/L okadaic acid, 0.25% sodium deoxycholate were included in the lysis buffer. Protein content was determined by the Bio-Rad protein assay (Bio-Rad Laboratories, CA, USA). For Western blot analysis, cell lysates (25 μg/lane) were electrophoresized on 10-15% SDS-polyacrylamide gels, and transferred to a nitrocellulose membrane. The membranes were probed with anti-Bcl-2 or anti-α-tubulin monoclonal antibody, or anti-phosphorylated Akt polyclonal antibody. The transferred membranes were developed with a secondary anti-mouse or anti-rabbit antibody as we previously described (Guh et al. (1998) Eur. J. Pharmacol. 359: 281-284). Detection of signal was performed with an enhanced chemiluminescence detection kit (ECL; Amersham International, Little Chalfont, U.K.).

Bcl-2 = test: Western blot of Bcl-2 levels; type: cell-based, rat
Procedure: as §2

cytochrome c = test: Detection of cytochrome c release; type: cell-based, rat
Procedure: Detection of Cytochrome c Release Reaction Cells were trypsinized and centrifuged at 800×g for 10 minutes. Then, the cell pellet was re-suspended in 50 μL of extraction buffer containing 20 mmol/L HEPES, pH 7.5, 10 mmol/L KCl, 1.5 mmol/L MgCl2, 1 mmol/L EDTA, 1 mmol/L EGTA, 1 mmol/L dithithretol, 1 mmol/L PMSF) and incubated for 3 minutes on ice. Cells were managed with 30 strokes and centrifuged at 15,000×g for 15 minutes at 4° C. Aliquots of 20 μg protein were resolved on 15% SDS-polyacrylamide gel and then blotted to PVDF membranes. Membranes were incubated with anti-cytochrome c monoclonal antibody. Then, membranes were incubated with anti-mouse IgG and the expression of cytochrome c was detected as described previously.
Western Blot Analysis After the exposure of cells to the indicated agents for four (for Bcl-2) or six (for cytochrome c) hours, cells were washed twice with ice-cold PBS and reaction was terminated by the addition of 100 μL ice-cold lysis buffer (10 mmol/L Tris-HCl, pH 7.4, 150 mmol/L NaCl, 1 mmol/L EGTA, 0.5 mmol/L phenylmethylsulfonyl fluoride (PMSF), 10 μg/mL aprotinin, 10 μg/mL leupeptin, and 1% Triton X-100). […] Protein content was determined by the Bio-Rad protein assay (Bio-Rad Laboratories, CA, USA). […]

[3] = system: LPS-induced septic death in mouse model; test: LPS-induced endotoxic shock (septic death) and lung histology; type: in vivo, mice
Procedure: Induction of Endotoxic Shock and Histological Examination In these experiments, mice (25-30 g, ICR strain) were injected intraperitoneally with 60 mg/kg of LPS (dissolved in PBS), and Compound 3 (suspended in carboxymethyl cellulose) was orally administered after the injection of LPS for 2 and 6 hours. The survival rate was monitored every 3 to 6 hours after LPS injection. For histological examination, the lung tissues were put into the 4% paraformaldehyde and embedded in paraffin. The embedded tissues were sectioned at 6-μm thick, stained with hematoxylin-eosin, and analyzed using a microscopy.

NR8383 macrophages = test: LPS/interferon γ-induced tumor necrosis factor-α release; type: cell-based; conditions: control 15.5±1.3, P=0.13, n=4
[4] = Reduction of cytochrome c by superoxide anion (xanthine/xanthine oxidase); type: biochemical; conditions: xanthine/xanthine oxidase system; control 42.0±2.1; P=0.4, n=4
[5] = Free radical-scavenging activity with 1,1-diphenyl-2-picrylhydrazyl; conditions: stable radical 1,1-diphenyl-2-picrylhydrazyl; data not shown
[6] = system: murine macrophage RAW 264.7 cells; test: LPS-evoked NO formation; type: cell-based; conditions: RAW 264.7, LPS 1 μg/mL, 24-hour; control 68.8±13.4; P=0.43, n=4
cyclooxygenase = conditions: Ko et al. (1994) Blood 84: 4226-4233; cited from earlier work
[7] = single agent alone, mean ± SEM, control 100
[8] = inhibitor added to Compound 3 + SNP
[9] = combination of SNP and Compound 3

Structure (SMILES): Cn1cc(C2=C(c3cn(CCCSC(=N)N)c4ccccc34)C(=O)NC2=O)c2ccccc21 [Ro-318220]
- cell survival ([1]; Ro-318220 added to Compound 3 plus SNP, n=7): 107.1±3.1%
- effect on Compound 3-mediated anti-apoptotic action [1]: little influence

Structure (SMILES): CCCC(=O)Nc1nc2c(ncn2C2OC3COP(=O)([O-])OC3C2OC(=O)CCC)c(=O)[nH]1.[Na+] (centres unmarked) [dibutyl-cGMP]
- effect on SNP-induced apoptosis [1]: significantly reverse

Structure (SMILES): O=c1onc2cnc3ccccc3n12 [ODQ, reference compound]
- effect on Compound 3-induced cell proliferation [1]: completely inhibited
- effect on SNP-induced apoptosis [1]: no influence
- effect on Compound 3-mediated anti-apoptotic action [1]: significantly reversed
- Cell survival (%) [1, 7]: 99.5 ± 5.7%
- cGMP level ([2]; ODQ + Compound 3 alone): the basal value
- cGMP level ([2]; ODQ + combination of SNP and Compound 3): ~21 fmol/well
- effect on Compound 3-mediated inhibition of caspase-3 activity (caspase-3; [8]): partially but significantly reversed
- effect on Compound 3-induced phosphorylated Akt expression (phosphorylated Akt; Compound 3 alone or with SNP): profoundly inhibited
- effect on preventive action of Compound 3 (Bcl-2 down-regulation) (Bcl-2; [8]): fully reversed
- effect on preventive action of Compound 3 (cytochrome c release) (cytochrome c; [8]): fully reversed

Structure (SMILES): OCc1ccc(-c2nn(Cc3ccccc3)c3ccccc23)o1 [Compound 3]
- increase in cell number ([1]; Compound 3 alone, not statistically significant): 11%
- Cell survival (%) ([1]; ODQ + Compound 3): 96.1 ± 4.2%
- Cell survival (%) ([1]; ODQ + SNP + Compound 3): 69.6 ± 4.0 %
- effect on SNP-induced apoptosis [1]: completely abolished
- Cell survival (%) ([1]; SNP + Compound 3 (SNP 1 mmol/L, Compound 3 30 μmol/L)): 100.6±5.5% and 102.9 ± 8.1^+ %
- ODQ-irresponsible action in Compound 3-mediated effect ([1]; remaining anti-apoptotic effect in presence of ODQ): about 20%
- Cell survival (%) [1, 7]: 111.3 ± 8.8%
- cGMP synthesis ([2]; Compound 3 alone, basal 2.3±0.3, 10 minutes): 4.2±0.8 fmol/well
- cGMP formation [2, 9]: 252.8±81.8 fmol/well
- increase of cGMP formation (folds) [2, 9]: more than sixty folds
- effect on SNP-induced caspase-3 activity (caspase-3; SNP 1 mmol/L, RASMCs): completely inhibited
- phosphorylated Akt expression (phosphorylated Akt; Compound 3 alone): profound increase
- phosphorylated Akt expression (phosphorylated Akt; Compound 3 in combination with SNP): profound increase
- effect on SNP-induced Bcl-2 down-regulation (Bcl-2; SNP 1 mmol/L): completely prevented
- effect on SNP-induced cytochrome c release (cytochrome c; SNP 1 mmol/L): completely prevented
- condition of survived mice after LPS initiation ([3]; LPS 60 mg/kg i.p., Compound 3 10 mg/kg oral post-treatment): remained vigorous more than one month
- survival rate of mice ([3]; LPS 60 mg/kg i.p., Compound 3 10 mg/kg oral two hours after LPS): significantly increased
- histological examination of lung tissues ([3]; post-treated Compound 3 group, LPS mice): intact blood vessels without the infiltration of blood cells
- LPS/interferon γ-induced tumor necrosis factor-α release (NR8383 macrophages): 18.5 ± 1.2 ng/mL
- reduction of cytochrome c by superoxide anion [4]: 40±0.6%
- free radical-scavenging activity [5]: little free radical-scavenging activity
- NO formation (nitrite) [6]: 53.4 ± 12.3 µmol/L
- inhibition on cyclooxygenase activity (cyclooxygenase): no inhibition

Structure (SMILES): COc1cccc(-c2cc(=O)c3ccccc3o2)c1N [PD98059]
- effect on Compound 3-induced cell proliferation [1]: completely inhibited
- effect on Compound 3-mediated anti-apoptotic action [1]: significantly reversed; also recorded: not PD98059 reversed
